Read-outs that look alike come from different tables or passages of the source.
Columns and labels:
[1] = tested on: yeast Saccharomyces cerevisiae; assay: Fermentation of sugar solution with model inhibitor coniferyl aldehyde; conditions: for viability at 10000 µM: Saccharomyces cerevisiae, read-out: Viable cells
Method: A sugar solution (glucose 18 g/L, mannose 14 g/L) with a coniferyl aldehyde concentration of 2.5 mM was prepared. Half of the solution was treated with 10 mM of sodium dithionite and the rest of the solution was left untreated as a reference. Fermentation was performed with the yeast Saccharomyces cerevisiae as described in the previous Examples.

[2] = tested on: yeast Saccharomyces cerevisiae; conditions: for Ethanol concentration / Productivity / Yield: 15.0 mM; for viability at 10000 µM: Saccharomyces cerevisiae, read-out: Viable cells; for Fermentability (glucose consumption): acid spruce hydrolysate
Method: A spruce slurry was prepared an subjected to acidic hydrolysis as described in Example 6. […] Sodium dithionite was added to different samples to concentrations of 2.5, 5, 7.5, 10, 12.5, and 15 mM. The treatments were performed at 21° C. for 5 min with stirring. In addition, treatments with 0.1% (7.9 mM) and 1% (79.3 mM) sodium sulphite were performed. […] Furthermore, a sugar solution (glucose 18 g/L, mannose 14 g/L) was prepared to evaluate if the effect of the sodium dithionite treatment was due to an effect on the hydrolysate or the ethanolic fermentation with yeast. Half of the sugar solution was treated with 10 mM sodium dithionite, whereas the rest was left untreated as a reference. The volumes of treated and untreated samples were equalized with water and the pH was adjusted to pH 5.5 prior to the fermentation. Fermentation was performed with the yeast Saccharomyces cerevisiae as described in the previous Examples.
Spruce hydrolysate samples were prepared as in Example 6.
Two samples were treated with DTT to 2 and 20 mM, respectively, two samples were treated with ascorbic acid to 10 and 100 mM, respectively and two samples were treated with glutathione to 1 and 10 mM, respectively.
The treatment time was 3 h for all samples and fermentation was performed as described in the previous Examples.

[3] = tested on: baker's yeast (Saccharomyces cerevisiae); assay type: cell-based; conditions: for Glucose consumption rates and amounts of ethanol produced: FIGS. 1 and 2
Method: The pH of the sugarcane bagass and spruce hydrolysates were adjusted to 5.5 with a 5 M solution of sodium hydroxide. The conditioning of each hydrolysate was performed in eight 100-mL glass vessels equipped with magnetic stirrer bars. 26 mL hydrolysate was added to all vessels, and the vessels were placed on a magnetic stirrer plate (IKA-Werke, Staufen, Germany). Sodium dithionite (chemical grade; >87%, Merck, Darmstadt, Germany) was added to hydrolysates in the concentrations 5 and 10 mM. Additions of sodium sulphite to 5 and 10 mM were also performed. The additions were made at room temperature (23° C.) and the samples were kept for 10 min with stirring. The experiments were performed in duplicates.
The efficiency of the additions of the reducing agents was compared with alkali detoxification.
Ethanol measurements were performed by using an enzymatic kit (Ethanol UV-method, Boehringer Mannheim GmbH, Mannheim, Germany). Fermentation experiments were performed to evaluate the effectiveness of the additions and treatments. For comparison, untreated hydrolysates were included in the fermentation experiments as well as reference fermentations of sugar-based medium with an amount of fermentable sugars (i.e. glucose and mannose) corresponding to that in the hydrolysate samples. The fermentations were carried out using baker's yeast (Saccharomyces cerevisiae) (Jästbolaget AB, Rotebro, Sweden). The yeast inoculum was prepared in 750-mL cotton-plugged shake flasks with 300 mL YEPD medium ([…], 2% D-glucose). The flasks were inoculated and incubated with agitation at 30° C. for approximately 12 h. The cells were harvested in the late exponential growth phase by centrifugation (Hermla Z206A, Hermle Labortechnik GmbH, Wehingen, Germany) at 1,500 g for 5 min. The cells were resuspended in an appropriate amount of sterile water to achieve an inoculum consisting of 2.0 g/L (cell dry weight) in all fermentation vessels. The fermentation was carried out in 14 25-mL glass flasks equipped with magnets for stirring and sealed with rubber plugs pierced with cannulas for letting out carbon dioxide. The hydrolysate samples (23.75 mL), or alternatively the sugar solution for reference fermentations, were added to the fermentation flasks along with 0.5 mL of a nutrient solution (150 g/L yeast extract, 75 g/L (NH4)2HPO4, 3.75 g/L MgSO4.7 H2O, 238.2 g/L NaH2PO4.H2O), and 0.75 mL of yeast inoculum. The flasks were incubated at 30° C. in a water bath with magnetic stirring (IKA-Werke). Samples for measurement of sugars and ethanol were withdrawn during the fermentation. The glucose levels during the fermentation were estimated by using a glucometer (Glucometer Elite XL, Bayer AG, Leverkusen, Germany).

[4] = Fermentation of sugar solution treated with sodium dithionite; assay type: cell-based; conditions: Saccharomyces cerevisiae, Saccharomyces cerevisiae yeast cells in fermentation, read-out: Viable cells
[5] = tested on: yeast Saccharomyces cerevisiae; assay: Simultaneous saccharification and fermentation (SSF) of sugarcane bagass slurry; assay type: cell-based; conditions: 7.5 and 10 mM, FIG. 9
Method: SSF experiments were also performed with sugarcane bagass slurries. […] Reducing agents, dithionite and sulphite, respectively, were added 10 min prior to inoculum in concentrations of studied 7.5 and 10 mM. The ethanol concentration was measured after 13 and 45 hours according to the protocol described in Example 1.

[6] = acid spruce hydrolysate, 2.5-15 mM, Table 4
[7] = tested on: yeast Saccharomyces cerevisiae; assay: Simultaneous saccharification and fermentation (SSF) of spruce slurry; assay type: cell-based; conditions: for Ethanol concentration: after 70 hours
Method: Addition of sodium dithionite and sodium sulphite was tested in an SSF process. Spruce was pretreated as described in Example 1 above. The spruce slurry was adjusted to pH 5.4 with a 5 M solution of sodium hydroxide. Ten 250-mL shake flasks equipped with magnetic stirrer bars were filled with 100 g of spruce slurry. Sodium dithionite or sodium sulphite was added to the slurries to final concentrations of 7.5 and 10 mM. The additions were performed at room temperature (23° C.) for 10 min with stirring. Duplicate experiments were made. Cellulase and cellobiase preparations were prepared and added to the slurry using the enzyme activity loadings as described in Example 1 above. Further, the yeast inoculum was prepared according to Example 1 above. Inoculums were added to give a start concentration of 2.0 g/L (cell dry weight) in every flask. No source of extra nutrients was added. For comparison, two flasks with spruce slurry to which no reducing agents had been added were included in the experiment. The flasks were incubated at 35° C. for 69 h in a water bath with magnetic stirring. The flasks were sealed with Parafilm (Pechiney Plastic Packaging Company, Chicago, Ill., USA) to prevent evaporation of ethanol. Samples were withdrawn for analysis of ethanol according to Example 1 above.
A spruce slurry was prepared according to Examples 1 and 2 above. Different flasks were filled with 100 g each of the spruce slurry and were subjected to a SSF process according to Example 2 above, but with different amounts of dithionite and sulphite added. The produced ethanol was monitored during the fermentation. […]

[8] = bagass hydrolysate, 6 h fermentation, 10 mM
[9] = spruce hydrolysate, 14 h fermentation, 10 mM

## O=S([O-])S(=O)[O-].[Na+].[Na+] [Dithionite, Sodium dithionite]
[1]; 2.25 h
  viability at 10000 µM: 76.7%
[1]; 7 h
  viability at 10000 µM: 75 ± 8%
[1]; sugar solution with coniferyl aldehyde (2.5 mM), sodium dithionite 10 mM, FIG. 12
  Glucose consumption rate: much higher
[2]; 2.75 h
  Ethanol concentration: 5.07 g/L
  Productivity: 1.84 g EtOH × L^−1 × h^−1
  Yield: 0.37 g EtOH/g consumed glucose and mannose
[2]; 4.25 h
  Ethanol concentration: 9.81 g/L
  Productivity: 2.31 g EtOH × L^−1 × h^−1
  Yield: 0.44 g EtOH/g consumed glucose and mannose
[2]; 6.25 h
  Ethanol concentration: 14.59 g/L
  Productivity: 2.33 g EtOH × L^−1 × h^−1
  Yield: 0.47 g EtOH/g consumed glucose and mannose
[2]; 9.25 h
  Ethanol concentration: 15.47 g/L
  Productivity: 1.67 g EtOH × L^−1 × h^−1
  Yield: 0.49 g EtOH/g consumed glucose and mannose
[2]; 2.25 h
  viability at 10000 µM: 91%
[2]; 7 h
  viability at 10000 µM: 96.7 ± 2.5%
[2]; 15 mM, FIG. 11
  Fermentability (glucose consumption): fermented about as well as the NH4OH treated sample and the plain sugar solution
[2]; 2.5-15 mM, FIG. 10
  Fermentability (glucose consumption): improved fermentability
[3]; [8]
  Balanced ethanol yield: 0.28 g EtOH/Σglucose & mannose prior to detoxification
  Productivity: 3.9 g EtOH × L^−1 × h^−1
  Yield: 0.34 g EtOH/g consumed glucose & mannose
[3]; bagass hydrolysate, 6 h fermentation, FIG. 4
  Ethanol production: high ethanol production
[3]; spruce hydrolysate, 5 mM
  Glucose consumption rates and amounts of ethanol produced: substantial improvement
[3]; spruce hydrolysate, 10 mM
  Glucose consumption rates and amounts of ethanol produced: comparable to those of the reference fermentation
[3]; [9]
  Balanced ethanol yield: 0.34 g EtOH/Σglucose & mannose prior to detoxification
  Productivity: 2.5 g EtOH × L^−1 × h^−1
  Yield: 0.37 g EtOH/g consumed glucose & mannose
[4]; pH 5.5, fermentation time 2.25 h
  viability at 2.25 h, 10 mM: 80.8 ± 4.5%
[4]; pH 5.5, fermentation time 7 h
  viability at 7 h, 10 mM: 84.3 ± 2.9%
[5]
  Fermentability (ethanol production after 13 and 45 hours): improved fermentability
[6]
  Degradation of monosaccharide: No significant degradation
[7]; 2.5 mM
  Ethanol concentration: about 10 g/L
[7]; 5 mM
  Ethanol concentration: 35 to 40 g/L
[7]; 7.5 mM
  Ethanol concentration: highest ethanol production
[7]; 10 mM, FIG. 5
  Time after which ethanol formation leveled off: about 45 h
[7]; 10 mM, FIG. 8
  Improvement of ethanol production, dithionite versus sulphite: better improvement than the addition of sulphite
[7]; 10 mM
  Ethanol concentration: highest ethanol production
[7]; 15 mM
  Ethanol concentration: highest ethanol production
[7]; 20 mM
  Ethanol concentration: 35 to 40 g/L
[7]; 30 mM
  Ethanol concentration: about 30 g/L
[7]; 7.5 and 10 mM, FIG. 5
  Ethanol production compared to the untreated hydrolysate: higher ethanol production

Source: patent US8815499B2, “In situ detoxification of fermentation inhibitors with reducing agents” (priority 2009, dated 2014)
